Our source for the Kd values is PubChem BioAssay AID608 (Sanford-Burnham Center for Chemical Genomics, 2007).

The source made the active and inactive calls. No rule for the calls is given here.

Peptidyl-prolyl cis-trans isomerase FKBP1A (Homo sapiens), sequence (P62942 whole entry, looked up): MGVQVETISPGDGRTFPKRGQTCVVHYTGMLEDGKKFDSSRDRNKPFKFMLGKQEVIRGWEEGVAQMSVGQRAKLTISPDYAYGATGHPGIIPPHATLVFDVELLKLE

This assay addresses Peptidyl-prolyl cis-trans isomerase FKBP1A (Homo sapiens) (UniProt P62942). Put plainly: small-molecule binding to FKBP12 – biophysical, NMR detection (AID 608). The conditions noted are these: purified FKBP12.
For the compound `O=C(O)c1ccccc1SCC(=O)N1CCOCC1`, the Kd was > 4 mM (inactive).

With `CC1(C)C(=O)[C@@H]2O[C@@H]2[C@@]2(C)C1C[C@@H](O)[C@]1(C)C2CC[C@@]2(C)[C@H](c3ccoc3)OC(=O)C3OC321` (stereo not given in full), the Kd was > 4 mM (inactive).

With `OC1COCc2nc3ccccc3n2C1` (stereo not given), the Kd was > 4 mM (inactive).

Regarding `Cc1ccccc1-n1c(N)cc(=O)[nH]c1=S`, the Kd is > 4 mM (inactive).

Turning to `Cc1noc(C)c1C(=O)Nc1ccccn1`, the Kd is > 4 mM (inactive).

Take `NCCCCNCCCN`: the Kd was > 4 mM (inactive).

Take `NC(=O)CSc1nc2[nH]ncc2c(=O)[nH]1`: the Kd is > 4 mM (inactive).

For the compound `CN(C)CC(O)C1CCOC(C)(C)C1` (stereo not given), the Kd is > 4 mM (inactive).

With `CN(C)Cc1nc2c([nH]1)c(=O)[nH]c(=O)n2C`, the Kd was > 4 mM (inactive).

Turning to `COc1cccc(=O)c2c(C)n(C)c(C)c12`, the Kd was > 4 mM (inactive).

Turning to `NCc1oc(-c2ccccc2)cc1C(=O)O`, the Kd is > 4 mM (inactive).

In the case of `CC1(C)Cn2c(nnc2-c2ccccc2)S1`, the Kd was > 4 mM (inactive).

`O=c1cc(O)nc(SCc2ccccc2)[nH]1`: the Kd was > 4 mM (inactive).

Turning to `O=C1CSC(=NC(=O)c2ccccc2)N1`, the Kd was > 4 mM (inactive).

As for `COC(=O)Cn1c2ccccc2c2nc(C)sc21`, the Kd is > 4 mM (inactive).

With `Cc1cc(C)n(-c2nncn2N)n1`, the Kd is > 4 mM (inactive).

Regarding `CC(=O)Oc1c2c(c(CC=C(C)C)c3c1C(=O)C1=C[C@@H]4CC5C(C)(C)OC(C/C=C(\C)C(=O)O)(C4=O)[C@@]15O3)OC(C)(CCC=C(C)C)C=C2` (stereo not given in full), the Kd was > 4 mM (inactive).

For the compound `Nc1cc(=O)[nH]c(SCC(=O)NCc2ccccc2)n1`, the Kd was > 4 mM (inactive).

As to `COc1ccc(S(N)(=O)=O)cc1`, the Kd was > 4 mM (inactive).

As to `O=C1CSC(=Nc2ccccc2)N1`, the Kd was > 4 mM (inactive).

On to `Cn1c(CN2CC(c3ccccc3)CC2=O)n[nH]c1=S` (stereo not given), for which the Kd was > 4 mM (inactive).

`CN1C(=O)/C(=C\c2ccc[nH]2)SC1=S`: the Kd was > 4 mM (inactive).

As to `CCC(C)C(=O)O[C@@H]1C[C@@]2(C)[C@H](c3ccoc3)OC(=O)CC23OC2(C)OC34[C@H](OC(=O)C(C)C)[C@@]3(O)[C@@H](OC(=O)C5(C)OC5C)[C@@]5(C)C[C@]3(O)[C@@](C)([C@H]5CC(=O)OC)C14O2` (stereo not given in full), the Kd was > 4 mM (inactive).

As to `CC[C@H](/C=C/C(C)C1CCC2C3CCC4=CC(=O)CC[C@]4(C)C3CC[C@]12C)C(C)C` (stereo not given in full), the Kd was > 4 mM (inactive).

Turning to `Cc1nc2ccccc2c(=O)n1-c1cccc(O)c1`, the Kd was > 4 mM (inactive).

`Cc1ccc(N2CCN(C(=O)c3ccccc3)CC2)c(C)c1`: the Kd was > 4 mM (inactive).

Turning to `O=C(Nc1ccccc1C(F)(F)F)N1CCCCCC1`, the Kd was > 4 mM (inactive).

As for `CCOC(=O)c1csc(C)n1`, the Kd was > 4 mM (inactive).

For `Cc1occc1C(=O)Nc1ccc2c(c1)CCC2`, the Kd is > 4 mM (inactive).

On to `CSc1nnc2[nH]c(=O)cc(N)n12`, for which the Kd was > 4 mM (inactive).

Take `O=C(CSc1ncnc2ccccc12)NCCCO`: the Kd is > 4 mM (inactive).

On to `CCc1c(C(=O)N2CCOCC2)csc1C`, for which the Kd was > 4 mM (inactive).

As for `O=C(NCc1n[nH]c(=O)c2ccccc12)C1CC1`, the Kd was > 4 mM (inactive).

With `Cn1ncc2c(=O)n(CC(=O)c3ccccc3)cnc21`, the Kd is > 4 mM (inactive).

As to `CC(=O)Nc1ccc(S(=O)(=O)NC2=NCCS2)cc1`, the Kd is > 4 mM (inactive).

Consider `[O-][n+]1onc2c1CCc1c-2nn(-c2ccccc2)[n+]1[O-]`, for which the Kd was > 4 mM (inactive).

On to `O=S1(=O)CCC(NC(=S)Nc2ccccn2)C1` (stereo not given), for which the Kd was > 4 mM (inactive).

As to `Cc1ccc(C2NS(=O)(=O)N=C2N)cc1` (stereo not given), the Kd is > 4 mM (inactive).

For the compound `S=c1[nH]cnc2sccc12`, the Kd is > 4 mM (inactive).

For the compound `CC12CN3CC(C)(CN(C1)C3c1cccs1)C2O` (stereo not given), the Kd is > 4 mM (inactive).

For `NC1CSCC1O` (stereo not given), the Kd is > 4 mM (inactive).

As to `Oc1ccccc1-c1cc(C(F)(F)F)[nH]n1`, the Kd is > 4 mM (inactive).

In the case of `Nc1ccc2c(c1)CCC2=O`, the Kd was > 4 mM (inactive).

Regarding `CC(C)c1c(O)ccc2c1CCC1C(C)(C)CCC[C@]21C` (stereo not given in full), the Kd was > 4 mM (inactive).

As to `O=C(O)CN1CCN(C2CCCC2)CC1`, the Kd was > 4 mM (inactive).

`O=C1CSC(=O)N1CNc1ccccc1`: the Kd was > 4 mM (inactive).

In the case of `CNc1nc(SC)nc(N2CCOCC2)n1`, the Kd was > 4 mM (inactive).

With `Nc1nc(-c2ccncc2)cs1`, the Kd is > 4 mM (inactive).

Take `CN1CCC(O)N1C(=O)c1ccccc1O` (stereo not given): the Kd is > 4 mM (inactive).

In the case of `Cc1noc(C)c1C(=O)N1CCN(c2ncccn2)CC1`, the Kd is > 4 mM (inactive).

Regarding `CC(=O)Nc1ccc(NC(C)=O)c(C(F)(F)F)c1`, the Kd is > 4 mM (inactive).

On to `c1ccc2[nH]c(CCn3cncn3)nc2c1`, for which the Kd is > 4 mM (inactive).

Turning to `NCc1ccccc1N1CCOCC1`, the Kd was > 4 mM (inactive).

For `COC(=O)c1c(OC)cc2c(c1C)Oc1c(Cl)c(OC(C)=O)c(Cl)c(C)c1C(=O)O2`, the Kd was > 4 mM (inactive).

`C=C1CCC2C(CC2(C)C)C(=C)CC/C1=N/O` (stereo not given): the Kd was > 4 mM (inactive).

As for `CC(C)NC(=O)c1nc2ccccc2s1`, the Kd is > 4 mM (inactive).

As for `C=C[C@H]1CN2CC[C@H]1C[C@@H]2[C@H](O)c1ccnc2ccccc12`, the Kd was > 4 mM (inactive).

For the compound `c1ccc(Cc2nn3c(-c4ccncc4)nnc3s2)cc1`, the Kd is > 4 mM (inactive).

Regarding `COC(=O)c1ccccc1NC(=O)c1cc[n+]([O-])cc1`, the Kd was > 4 mM (inactive).

`Cc1cc(C)n2nc(-c3cccnc3)nc2n1`: the Kd was > 4 mM (inactive).

As for `O=C(Nc1nc2ccccc2s1)c1ccc(=O)[nH]n1`, the Kd was > 4 mM (inactive).

On to `Cn1c(=O)c2c(ncn2C)n(C)c1=O`, for which the Kd was > 4 mM (inactive).

In the case of `COc1cccc(O)c1O`, the Kd was > 4 mM (inactive).

For `CC(CO)NC(=O)C1C=C2c3cccc4[nH]cc(c34)C[C@H]2N(C)C1` (stereo not given in full), the Kd is > 4 mM (inactive).

In the case of `COc1ccc2c(c1)OC/C(=C/c1ccc(O)c(O)c1)C2=O`, the Kd is > 4 mM (inactive).

On to `NCC(=O)c1ccccc1`, for which the Kd is > 4 mM (inactive).

`CN=C(c1ccc([N+](=O)[O-])cc1)N(C)C`: the Kd was > 4 mM (inactive).

In the case of `C[C@@H]1O[C@@H](O[C@H]2[C@H](Oc3cc(O)c4c(=O)cc(-c5ccc(O)cc5)oc4c3)O[C@H](CO)[C@@H](O)[C@@H]2O)[C@H](O)[C@H](O)[C@H]1O`, the Kd is > 4 mM (inactive).

With `COc1ccc(-c2c(C)n([O-])c(C)c(C)[n+]2=O)cc1`, the Kd was > 4 mM (inactive).

As for `CC(C)n1c(Nn2cnnc2)nc2ccccc21`, the Kd was > 4 mM (inactive).

Turning to `CS(=O)(=O)Nc1nnc(Cc2ccccc2)s1`, the Kd is > 4 mM (inactive).

As for `Nc1ccc(-n2cccn2)cc1`, the Kd is > 4 mM (inactive).

Take `O=C1CC(=O)N(c2ccccc2F)C(=S)N1`: the Kd is > 4 mM (inactive).

For `O=S(=O)(N1CCOCC1)n1c(Cc2ccccc2)nc2ccccc21`, the Kd entry was “inactive”.

As to `NC(=O)c1ccccc1N=Cc1ccco1`, the Kd was > 4 mM (inactive).

On to `C=CCSCC=C`, for which the Kd is > 4 mM (inactive).

As to `CC1(C)C2C[C@@H](O)[C@]3(C)C(CC[C@@]4(C)[C@H](c5ccoc5)OC(=O)[C@H]5O[C@]543)[C@@]2(C)[C@@H](O)C[C@H]1O` (stereo not given in full), the Kd is > 4 mM (inactive).

With `Oc1cc2c(cc1O)C1c3ccc(O)c(O)c3OCC1(O)C2` (stereo not given), the Kd is > 4 mM (inactive).

As to `CC(=O)NC12CC3CC(C)(C1)CC(NC(C)=O)(C3)C2`, the Kd is > 4 mM (inactive).

Regarding `O=C(Nc1cccnc1)Nc1ccc2c(c1)OCO2`, the Kd was > 4 mM (inactive).

On to `CCc1ccccc1NC(=O)c1cnccn1`, for which the Kd was > 4 mM (inactive).

Consider `Cc1n[nH]c(C)c1CN`, for which the Kd is > 4 mM (inactive).

For the compound `CCOC(=O)c1c(-c2ccncc2)csc1N`, the Kd is > 4 mM (inactive).

In the case of `CC(=O)Nc1cnn(-c2ccccc2)c(=O)c1Cl`, the Kd was > 4 mM (inactive).

Consider `CN1CCN(c2nc3c(c(=O)[nH]2)CCCC3)CC1`, for which the Kd was > 4 mM (inactive).

For `N#Cc1cc(-c2ccccc2)oc1N`, the Kd was > 4 mM (inactive).

As for `CSc1ccccc1NC(=O)c1cccnc1`, the Kd was > 4 mM (inactive).

Take `CC(C)c1ccc(S(=O)(=O)CC(=O)N2CCOCC2C(=O)OCCCc2cccnc2)cc1` (stereo not given): the Kd result was “inactive”.

For the compound `Nc1nc(O)c(C2=c3cc(Cl)ccc3=NC2=O)s1`, the Kd was > 4 mM (inactive).

On to `Nc1nc(-c2ccc(O)cc2)cs1`, for which the Kd is > 4 mM (inactive).

In the case of `CC(=O)O[C@H]1CC[C@@]2(C)C(C[C@@H](OC(C)=O)[C@@]3(C)C4=CC(=O)O[C@@H](c5ccoc5)[C@]4(C)CCC23)C1(C)C` (stereo not given in full), the Kd was > 4 mM (inactive).

For the compound `CNC(=O)Cn1c(=O)n(C)c2ccccc21`, the Kd is > 4 mM (inactive).

Consider `CCOC(=O)c1[nH]c(C)cc1C`, for which the Kd was > 4 mM (inactive).

Take `O=C(O)C1=C[C@@H](O)[C@@H](O)[C@H](O)C1`: the Kd is > 4 mM (inactive).

As to `Nc1cc(=O)[nH]c(SCC(=O)NC2CCCCC2)n1`, the Kd was > 4 mM (inactive).

`C=C(C)[C@H]1CC=C(C(=O)O)CC1`: the Kd is > 4 mM (inactive).

Take `COC(=O)N1CCN(c2ccc(OC)cc2)CC1`: the Kd is > 4 mM (inactive).

For the compound `N=C1/C(=C\c2ccco2)C(=O)N=C2SC=NN12`, the Kd is > 4 mM (inactive).

For `COc1c(-c2coc3cc4c(cc3c2=O)CC(OC(C)=O)C(C)(C)O4)ccc2c1C=CC(C)(C)O2` (stereo not given), the Kd was > 4 mM (inactive).

Turning to `O=C(NC(=O)N1CCOCC1)c1ccccc1`, the Kd was > 4 mM (inactive).

What is called Kd is the concentration at which binding is half-saturated.
